For the experiment, the target named is Sphingosine 1-phosphate receptor 1 (Homo sapiens, UniProt P21453). The experiment can be described thus: Binding Assay: Membranes were prepared from CHO cells expressing human S1P1. Cells pellets (1x10^9 cells/pellet) were suspended in buffer containing 20 mM HEPES (4-(2-hydroxyethyl)-1-piperazineethanesulfonic acid), pH 7.5, 50 mM NaCl, 2 mM EDTA (Ethylenediaminetetraacetic acid) and Protease Inhibitor cocktail (Roche), and disrupted on ice using the Polytron homogenizer. The homogenate was centrifuged at 20,000 rpm (48,000 g) and the supernatant was discarded. The membrane pellets were resuspended in buffer containing 50 mM HEPES, pH 7.5, 100 mM NaCl, 1 mM MgCl2, 2 mM EDTA and stored in aliquots at -80° C. after protein concentration determination.Membranes (2 ug/well) and 0.03 nM final concentration of 33P-S1P ligand (1 mCi/ml, Perkin elmer or American Radiolabeled Chemicals) diluted in assay buffer (50 mM HEPES, pH7.4, 5 mM MgCl2, 1 mM CaCl2, 0.5% fatty acid free BSA (bovine serum albumin), 1 mM NaF) were added to the compound plates (384 Falcon v-bottom plate (0.5 ul/well in a 11 point, 3-fold dilution). Binding was performed for 45 minutes at room temperature, terminated by collecting the membranes onto 384-well Millipore FB filter plates, and radioactivity was measured by TOPCOUNT. The competition data of the test compounds over a range of concentrations was plotted as percentage inhibition of radioligand specific binding.

As a reminder, the IC50 is the concentration needed to halve the response being measured.

Sphingosine 1-phosphate receptor 1, sequence (P21453 whole entry): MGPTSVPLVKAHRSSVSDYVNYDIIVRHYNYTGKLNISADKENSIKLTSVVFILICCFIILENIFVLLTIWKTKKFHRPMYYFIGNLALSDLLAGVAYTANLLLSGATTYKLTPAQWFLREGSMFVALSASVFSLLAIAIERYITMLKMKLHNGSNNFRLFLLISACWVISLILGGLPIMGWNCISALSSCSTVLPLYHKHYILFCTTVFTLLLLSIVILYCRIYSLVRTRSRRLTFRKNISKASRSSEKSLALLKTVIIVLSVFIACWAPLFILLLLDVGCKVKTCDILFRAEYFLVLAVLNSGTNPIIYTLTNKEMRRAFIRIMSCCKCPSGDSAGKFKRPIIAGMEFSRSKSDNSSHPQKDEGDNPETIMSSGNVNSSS

For the molecule `CCCCCC[C@H]1Cc2ccc([C@@H]3CC[C@](N)(COP(=O)(O)O)C3)cc2CO1`, the IC50 was below 10 nM.

Source of the values: ChEMBL document CHEMBL5725202, “Substituted bicyclic compounds” (2016).
